Measured values as given in patent US20180280377A1, “Imidazo[4,5-c]quinolin-2-one Compounds and Their Use in Treating Cancer” (ASTRAZENECA AB, priority 2015, published 2018).

What was measured:
[1] = biological target: T1, ATM (Homo sapiens, UniProt Q13315); assay: ATM cellular potency assay (pATM Ser1981 in irradiated HT29 cells); type: cell-based; settings: 1 h compound, X-ray irradiation, pATM (Ser1981); Table 2; read-out: Assay a) ATM Cell IC50
T1 construct: endogenous in cells; host or cells: HT29 cells (ECACC #85061109)
Method: (§1) The following assays were used to measure the effects of the compounds of the present invention: a) ATM cellular potency assay; b) PI3K cellular potency assay; c) mTOR cellular potency assay; d) ATR cellular potency assay. During the description of the assays, generally: • i. […] IC50 values were calculated using a smart fitting model in Genedata.
Most ATM molecules in the cell are rapidly phosphorylated on this site after doses of radiation as low as 0.5 Gy, and binding of a phosphospecific antibody is detectable after the introduction of only a few DNA double-strand breaks in the cell.
The rationale of the pATM assay is to identify inhibitors of ATM in cells. HT29 cells are incubated with test compounds for 1 h prior to X-ray-irradiation. 1 h later the cells are fixed and stained for pATM (Ser1981). The fluorescence is read on the arrayscan imaging platform.
The following morning compounds of Formula (I) in 100% DMSO were added to assay plates by acoustic dispensing. After 1 h incubation at 37° C. and 5% CO2, plates (up to 6 at a time) were irradiated using the X-RAD 320 instrument (PXi) with equivalent to 600 cGy. Plates were returned to the incubator for a further 1 h. Then cells were fixed by adding 20 μl of 3.7% formaldehyde in PBS solution and incubating for 20 minutes at r.t. before being washed with 50μl/well PBS, using a Biotek EL405 plate washer. Then 20 μl of 0.1% Triton X100 in PBS was added and incubated for 20 minutes at r.t., to permeabalise cells. Then the plates were washed once with 50 μl/well PBS, using a Biotek EL405 plate washer.
After 1 h incubation at r.t., the plates were washed three times with 50 μl/well PBS, using a Biotek EL405 plate washer, and plates were sealed and kept in PBS at 4° C. until read. Plates were read using an ArrayScan VTI instrument, using an XF53 filter with 10× objective.

[2] = biological target: T2, ATR (Homo sapiens, UniProt Q13535); assay: ATR cellular potency assay (pChk1 Ser345 in HT29 cells after 4NQO); type: cell-based; settings: pChk1 (Ser 345); Table 2; read-out: Assay b) ATR Cell IC50
T2 construct: endogenous in cells; host or cells: HT29 cells (ECACC #85061109)
Method: as §1
ATR is a PI3-kinase-related kinase which phosphorylates multiple substrates on serine or threonine residues in response to DNA damage during or replication blocks. Chk1, a downstream protein kinase of ATR, plays a key role in DNA damage checkpoint control. Activation of Chk1 involves phosphorylation of Ser317 and Ser345 (the latter regarded as the preferential target for phosphorylation/activation by ATR).
The following morning compound of Formula (I) in 100% DMSO were added to assay plates by acoustic dispensing. After 1 h incubation at 37° C. and 5% CO2, 40 nl of 3 mM 4NQO in 100% DMSO was added to all wells by acoustic dispensing, except minimum control wells which were left untreated with 4NQO to generate a null response control. Plates were returned to the incubator for a further 1 h. Then cells were fixed by adding 20 μl of 3.7% formaldehyde in PBS solution and incubating for 20 mins at r.t. Then […] of 0.1% Triton X100 in PBS was added and incubated for 10 minutes at r.t., to permeabalise cells. Then the plates were washed once with […] PBS, using a Biotek EL405 plate washer.
After 2 h incubation at r.t., the plates were washed three times with […] PBS, using a Biotek EL405 plate washer, and plates were then sealed with black plate seals until read. Plates were read using an ArrayScan VTI instrument, using an XF53 filter with 10× objective.

T1 sequence (Q13315 whole entry): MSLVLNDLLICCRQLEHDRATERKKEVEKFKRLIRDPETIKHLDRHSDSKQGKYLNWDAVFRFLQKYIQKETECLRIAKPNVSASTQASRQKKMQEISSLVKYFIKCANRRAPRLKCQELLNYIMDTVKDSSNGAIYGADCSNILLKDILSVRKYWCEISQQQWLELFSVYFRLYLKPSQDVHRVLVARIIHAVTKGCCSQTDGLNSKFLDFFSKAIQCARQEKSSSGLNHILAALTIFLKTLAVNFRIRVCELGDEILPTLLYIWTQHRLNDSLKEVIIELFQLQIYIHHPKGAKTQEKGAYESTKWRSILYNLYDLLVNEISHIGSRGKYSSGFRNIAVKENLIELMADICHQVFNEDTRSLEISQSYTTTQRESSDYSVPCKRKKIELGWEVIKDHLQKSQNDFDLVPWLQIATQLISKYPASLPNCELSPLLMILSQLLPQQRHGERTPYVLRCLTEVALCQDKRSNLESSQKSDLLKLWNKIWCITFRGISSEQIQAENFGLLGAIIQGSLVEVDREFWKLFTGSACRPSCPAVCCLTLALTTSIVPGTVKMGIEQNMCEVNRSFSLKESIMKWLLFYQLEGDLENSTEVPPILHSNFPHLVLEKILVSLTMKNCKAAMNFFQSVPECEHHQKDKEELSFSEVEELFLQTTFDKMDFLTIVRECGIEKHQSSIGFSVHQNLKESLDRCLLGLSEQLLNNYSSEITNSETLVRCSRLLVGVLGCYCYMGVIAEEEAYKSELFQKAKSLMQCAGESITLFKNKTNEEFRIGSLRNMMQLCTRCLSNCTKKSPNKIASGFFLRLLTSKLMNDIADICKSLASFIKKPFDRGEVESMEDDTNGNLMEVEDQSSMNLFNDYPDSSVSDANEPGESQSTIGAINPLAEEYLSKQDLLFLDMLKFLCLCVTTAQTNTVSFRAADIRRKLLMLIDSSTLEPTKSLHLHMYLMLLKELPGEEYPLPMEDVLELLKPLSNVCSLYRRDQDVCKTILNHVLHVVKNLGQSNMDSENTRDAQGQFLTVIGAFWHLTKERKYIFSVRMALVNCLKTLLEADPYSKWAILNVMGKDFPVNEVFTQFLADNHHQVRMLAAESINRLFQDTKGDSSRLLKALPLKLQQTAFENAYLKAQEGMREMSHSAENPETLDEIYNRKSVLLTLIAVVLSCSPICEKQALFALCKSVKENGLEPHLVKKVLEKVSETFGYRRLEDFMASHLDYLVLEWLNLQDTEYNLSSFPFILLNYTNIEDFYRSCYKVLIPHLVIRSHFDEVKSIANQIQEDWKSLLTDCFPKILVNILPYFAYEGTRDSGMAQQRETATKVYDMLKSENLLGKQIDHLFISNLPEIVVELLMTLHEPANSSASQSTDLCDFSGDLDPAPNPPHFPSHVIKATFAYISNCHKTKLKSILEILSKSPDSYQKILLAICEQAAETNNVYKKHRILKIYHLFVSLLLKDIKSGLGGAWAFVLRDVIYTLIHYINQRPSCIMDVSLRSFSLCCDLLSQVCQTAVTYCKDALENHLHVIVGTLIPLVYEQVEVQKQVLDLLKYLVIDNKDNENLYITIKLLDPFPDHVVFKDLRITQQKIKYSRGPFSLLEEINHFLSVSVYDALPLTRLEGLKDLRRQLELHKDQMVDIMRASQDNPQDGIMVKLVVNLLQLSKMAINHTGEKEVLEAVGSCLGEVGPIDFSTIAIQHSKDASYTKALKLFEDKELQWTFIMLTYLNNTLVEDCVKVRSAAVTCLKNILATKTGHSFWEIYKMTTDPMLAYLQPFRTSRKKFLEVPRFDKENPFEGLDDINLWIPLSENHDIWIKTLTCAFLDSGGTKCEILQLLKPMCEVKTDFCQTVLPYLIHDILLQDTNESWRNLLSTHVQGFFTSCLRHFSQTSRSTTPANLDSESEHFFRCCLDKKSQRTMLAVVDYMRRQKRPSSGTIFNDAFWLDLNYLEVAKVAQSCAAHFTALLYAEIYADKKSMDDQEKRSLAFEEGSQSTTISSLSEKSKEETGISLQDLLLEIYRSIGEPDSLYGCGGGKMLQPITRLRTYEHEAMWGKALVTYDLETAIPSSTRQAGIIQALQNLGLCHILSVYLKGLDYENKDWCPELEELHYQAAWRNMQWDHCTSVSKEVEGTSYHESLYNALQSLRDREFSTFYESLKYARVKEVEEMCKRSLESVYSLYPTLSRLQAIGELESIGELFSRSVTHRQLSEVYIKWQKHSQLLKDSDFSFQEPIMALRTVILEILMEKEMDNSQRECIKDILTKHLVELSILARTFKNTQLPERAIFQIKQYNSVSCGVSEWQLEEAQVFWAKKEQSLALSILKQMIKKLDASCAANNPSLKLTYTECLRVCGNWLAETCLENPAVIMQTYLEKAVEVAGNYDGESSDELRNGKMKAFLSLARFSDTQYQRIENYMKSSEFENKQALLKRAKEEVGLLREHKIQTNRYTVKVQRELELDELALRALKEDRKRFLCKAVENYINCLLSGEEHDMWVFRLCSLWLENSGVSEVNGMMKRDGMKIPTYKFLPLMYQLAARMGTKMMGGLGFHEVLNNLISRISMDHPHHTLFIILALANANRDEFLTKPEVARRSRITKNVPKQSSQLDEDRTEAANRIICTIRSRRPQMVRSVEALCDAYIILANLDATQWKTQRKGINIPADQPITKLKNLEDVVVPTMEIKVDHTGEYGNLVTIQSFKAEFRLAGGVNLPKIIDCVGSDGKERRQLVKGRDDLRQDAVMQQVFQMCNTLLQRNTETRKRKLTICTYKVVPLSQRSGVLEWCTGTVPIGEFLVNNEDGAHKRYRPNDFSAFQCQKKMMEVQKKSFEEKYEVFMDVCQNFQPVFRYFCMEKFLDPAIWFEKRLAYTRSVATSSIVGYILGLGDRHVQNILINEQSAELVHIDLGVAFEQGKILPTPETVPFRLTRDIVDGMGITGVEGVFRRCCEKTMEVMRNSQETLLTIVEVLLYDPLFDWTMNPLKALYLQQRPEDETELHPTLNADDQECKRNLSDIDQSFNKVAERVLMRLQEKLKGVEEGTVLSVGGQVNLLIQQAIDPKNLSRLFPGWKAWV

IC50 [1]	IC50 [2]	Compound
16.7 nM	1970 nM	CO[C@@H]1CCC[C@H](n2c(=O)n(C)c3cnc4ccc(-c5ccc(N6CC(N(C)C)C6)nc5)cc4c32)C1 (single isomer, unassigned) [Example 50, 8-[6-[3-(dimethylamino)azetidin-1-yl]-3-pyridyl]-1-[cis-3-methoxycyclohexyl]-3-methyl-imidazo[4,5-c]quinolin-2-one]
1.04 nM	261 nM	CN(C)[C@@H]1CCN(c2ccc(-c3ccc4ncc5c(c4c3)n([C@H]3CCOC3)c(=O)n5C)cn2)C1 [Example 8]
0.061 nM	> 25600 nM	CO[C@H]1CCC[C@H](n2c(=O)n(C)c3cnc4ccc(-c5ccc(N6CCC(N(C)C)CC6)nc5)cc4c32)C1 (single isomer, unassigned) [Example 54, 8-[6-[4-(dimethylamino)-1-piperidyl]-3-pyridyl]-1-[trans-3-methoxycyclohexyl]-3-methyl-imidazo[4,5-c]quinolin-2-one]
2.34 nM	201 nM	CO[C@@H]1CCC[C@H](n2c(=O)n(C)c3cnc4ccc(-c5ccc(N6CC[C@@H](N(C)C)C6)nc5)cc4c32)C1 (single isomer, unassigned) [Example 48]
2.02 nM	> 30000 nM	CN(C)C1CCN(c2ccc(-c3cc4c(cc3F)ncc3c4n([C@H]4CCCOC4)c(=O)n3C)cn2)CC1 [Example 41, 8-[6-[4-(dimethylamino)-1-piperidyl]-3-pyridyl]-7-fluoro-3-methyl-1-[(3S)-tetrahydropyran-3-yl]imidazo[4,5-c]quinolin-2-one]
0.889 nM	1120 nM	CO[C@H]1CC[C@@H](n2c(=O)n(C)c3cnc4ccc(-c5ccc(N6CC[C@@H](N(C)C)C6)nc5)cc4c32)CC1 (single isomer, unassigned) [Example 44]
0.269 nM	> 21400 nM	CO[C@H]1CCC[C@H](n2c(=O)n(C)c3cnc4ccc(-c5ccc(N6CCC(N(C)C)CC6)nc5)cc4c32)C1 (single isomer, unassigned) [Example 53, 8-[6-[4-(dimethylamino)-1-piperidyl]-3-pyridyl]-1-[trans-3-methoxycyclohexyl]-3-methyl-imidazo[4,5-c]quinolin-2-one]
3.38 nM	804 nM	CO[C@H]1CCC[C@H](n2c(=O)n(C)c3cnc4ccc(-c5ccc(N6CC(N(C)C)C6)nc5)cc4c32)C1 (single isomer, unassigned) [Example 55, 8-[6-[3-(dimethylamino)azetidin-1-yl]-3-pyridyl]-1-[trans-3-methoxycyclohexyl]-3-methyl-imidazo[4,5-c]quinolin-2-one]
1.7 nM	> 30000 nM	CO[C@H]1C[C@@H](n2c(=O)n(C)c3cnc4cc(F)c(-c5ccc(N6CC[C@@H](N(C)C)C6)nc5)cc4c32)C1 [Example 6, 8-[6-[(3R)-3-(Dimethylamino)pyrrolidin-1-yl]-3-pyridyl]-7-fluoro-1-(cis-3-methoxycyclobutyl)-3-methyl-imidazo[4,5-c]quinolin-2-one]
9.68 nM	> 30000 nM	CO[C@H]1CC[C@H](n2c(=O)n(C)c3cnc4cc(F)c(-c5ccc(N6CC(N(C)C)C6)nc5)cc4c32)C1 (single isomer, unassigned) [Example 29, 8-[6-[3-(dimethylamino)azetidin-1-yl]-3-pyridyl]-7-fluoro-1-[trans-3-methoxycyclopentyl]-3-methyl-imidazo[4,5-c]quinolin-2-one]
0.312 nM	284 nM	CO[C@H]1CC[C@H](n2c(=O)n(C)c3cnc4ccc(-c5ccc(N6CC[C@@H](N(C)C)C6)nc5)cc4c32)C1 [Example 5, 8-[6-[(3R)-3-(Dimethylamino)pyrrolidin-1-yl]-3-pyridyl]-1-[(1S,3S)-3-methoxycyclopentyl]-3-methyl-imidazo[4,5-c]quinolin-2-one]
0.753 nM	> 25500 nM	CNC1CCN(c2ccc(-c3ccc4ncc5c(c4c3)n(C3CCOCC3)c(=O)n5C)cn2)CC1 [Example 61, 3-methyl-8-[6-[4-(methylamino)-1-piperidyl]-3-pyridyl]-1-tetrahydropyran-4-yl-imidazo[4,5-c]quinolin-2-one]
25.8 nM	> 30000 nM	CO[C@H]1C[C@@H](n2c(=O)n(C)c3cnc4cc(F)c(-c5ccc(N6CC[C@H](N(C)C)C6)nc5)cc4c32)C1 [Example 21]
72 nM	> 30000 nM	CO[C@H]1C[C@@H](n2c(=O)n(C)c3cnc4cc(F)c(-c5ccc(N6CCC[C@@H](N(C)C)C6)nc5)cc4c32)C1 [Example 43, 8-[6-[(3R)-3-(dimethylamino)-1-piperidyl]-3-pyridyl]-7-fluoro-1-(cis-3-methoxycyclobutyl)-3-methyl-imidazo[4,5-c]quinolin-2-one]
1.51 nM		CN(C)[C@@H]1CCN(c2ccc(-c3cc4c(cc3F)ncc3c4n([C@@H]4CCCOC4)c(=O)n3C)cn2)C1 [Example 14]
6.61 nM	2520 nM	CO[C@H]1CC[C@H](n2c(=O)n(C)c3cnc4ccc(-c5ccc(N6CC(N(C)C)C6)nc5)cc4c32)CC1 [Example 25, 8-[6-[3-(dimethylamino)azetidin-1-yl]-3-pyridyl]-1-(trans-4-methoxycyclohexyl)-3-methyl-imidazo[4,5-c]quinolin-2-one]
0.77 nM	1080 nM	CO[C@H]1C[C@H](n2c(=O)n(C)c3cnc4ccc(-c5ccc(N6CC[C@@H](N(C)C)C6)nc5)cc4c32)C1 [Example 11]
13.4 nM	6710 nM	CO[C@H]1CC[C@H](n2c(=O)n(C)c3cnc4ccc(-c5ccc(N6CC(N(C)C)C6)nc5)cc4c32)C1 (single isomer, unassigned) [Example 22, 8-[6-[3-(dimethylamino)azetidin-1-yl]-3-pyridyl]-1-[trans-3-methoxycyclopentyl]-3-methyl-imidazo[4,5-c]quinolin-2-one]
15.3 nM	1910 nM	CO[C@@H]1CCC[C@H](n2c(=O)n(C)c3cnc4ccc(-c5ccc(N6CC(N(C)C)C6)nc5)cc4c32)C1 (single isomer, unassigned) [Example 49, 8-[6-[3-(dimethylamino)azetidin-1-yl]-3-pyridyl]-1-[cis-3-methoxycyclohexyl]-3-methyl-imidazo[4,5-c]quinoline-2-one]
15.7 nM	1190 nM	CO[C@H]1CCC[C@H](n2c(=O)n(C)c3cnc4ccc(-c5ccc(N6CC(N(C)C)C6)nc5)cc4c32)C1 (single isomer, unassigned) [Example 56, 8-[6-[3-(dimethylamino)azetidin-1-yl]-3-pyridyl]-1-[trans-3-methoxycyclohexyl]-3-methyl-imidazo[4,5-c]quinolin-2-one]
5.9 nM	5950 nM	CN(C)C1CN(c2ccc(-c3ccc4ncc5c(c4c3)n([C@@H]3CCCOC3)c(=O)n5C)cn2)C1 [Example 27, 8-[6-[3-(dimethylamino)azetidin-1-yl]-3-pyridyl]-3-methyl-1-[(3R)-tetrahydropyran-3-yl]imidazo[4,5-c]quinolin-2-one]
0.434 nM	223 nM	CO[C@H]1CC[C@H](n2c(=O)n(C)c3cnc4ccc(-c5ccc(N6CC[C@@H](N(C)C)C6)nc5)cc4c32)CC1 [Example 12]
> 23.9 nM		CN(C)[C@@H]1CCN(c2ccc(-c3ccc4ncc5c(c4c3)n(C3CCOCC3)c(=O)n5C)cn2)C1 [Example 13]
